Results from US9918931B2, “Method for providing a customized skin care product to a customer” (L'OREAL, priority 2016, dated 2018).

Experiment: Solubility of active ingredients in base oil composition
Assay type: physicochemical
Conditions: active ingredient in base oil composition; loading without asterisk

O=C(O)c1ccccc1O [Salicylic Acid, reference compound]
Loading (wt %), soluble (not marked *): 3%
